Source: US10723694B2, “Propargyl-functionalized macrocyclic compounds” (KUWAIT UNIVERSITY, priority 2018, dated 2020)

Tests used:
Format in all cases: physicochemical
[1] = Singlet oxygen quantum yield, chemical method with DPBF quencher; conditions: DMF, 414 nm
Excerpt: Transferring of energy from a triplet state of a photosensitizer such as Pc to ground state molecular oxygen leads to the production of singlet oxygen. There is a necessity of high efficiency of energy transfer between the excited triplet state of photosensitizer and the ground state of oxygen in order to generate large amounts of singlet oxygen, essential for PDT applications. The singlet oxygen quantum yield (ΦA) values give the amount of the generated singlet oxygen. This value is an indication of the potential provided by the compounds as photosensitizers in applications where singlet oxygen is required. The ΦΔ values for AzaPc1/Pc2-Pc5 were determined in DMF by a chemical method using 1,3-diphenylisobenzofuran (DPBF) as a quencher. The disappearance of DPBF at 414 nm was monitored using UV-Vis spectrophotometer. Many factors can be responsible for the magnitude of the determined singlet oxygen quantum yield, including triplet excited state energy, ability of substituents and solvents to quench the singlet oxygen, the triplet excited state lifetime and the efficiency of the energy transfer between the triplet excited state and the ground state of oxygen.

[2] = Photodegradation under light irradiation; conditions: DMF
Excerpt: Photodegradation is an indicator of the stability of compounds, which is useful for determining the photosensitizing ability of the compounds as PDT agents. The stability of photosensitizers under light irradiation is important for photochemical processes such as PDT because photosensitizers need to survive for a specific period in the body. Photodegradation degree can be detected by photodegradation quantum yield (Φd), which depends on structure, light intensity, solvent used and concentration of a compound of interest. Photodegradation of a compound under light irradiation can be used to study the compound stability, which is important for those molecules intended for the application in photocatalytic reactions. Collapse of absorption spectra without any distortion of the shape of the absorption spectra confirms photo-degradation not associated with photo-transformation into different forms of Pcs absorbing light in the visible region. The spectral changes for all of the exemplary AzaPc1/Pc2-Pc5 compounds were determined in response to light irradiation, and photodegradation occurred without phototransformation, because only Q and B bands were decreased, i.e., no new band formation was observed.
Pc derivatives and their macrocyclic analogs generate singlet oxygen when they are illuminated by an appropriate light. The formed […] via photooxidation reactions. Generally, photodegradation of Pc/Pc-analog compounds by light irradiation results in formation of the phthalamide residue. The photodegradation behavior of AzaPc1/Pc2-Pc5 in DMF were determined. The Φd values of these novel systems are on the order of 10^−4 (Table 2), consistent with values for other Pcs containing different metals and substituents.

[3] = Fluorescence excitation and emission spectra in DMF; conditions: for Stokes shift ΔStokes: difference between excitation and emission maxima
Experimental: Fluorescence behaviors of the AzaPc1/Pc2-Pc5 compounds were evaluated in DMF solutions. FIGS. 12A-12E show absorption, fluorescence emission and excitation spectra of these complexes.
Excitation maxima appear at 629 nm for AzaPc1, 679 nm for Pc2, 678 nm for Pc3, 682 nm for Pc4 and 700 nm for Pc5 in DMF. Emission maxima appear at 639 nm, 683 nm, 686 nm, 688 nm and 707 nm for AzaPc1/Pc2-Pc5, respectively. The observed Stokes' shifts, which are differences between the excitation and emission wavelength maxima, are between 4 and 10 nm for all of the zinc (II) complexes (Table 1). The observed Stokes' shifts are consistent with those of typical zinc (II) phthalocyanine complexes.

[4] = Fluorescence lifetime by time correlated single photon counting (TCSPC); conditions: DMF
Experimental: Fluorescence lifetime (τF) refers to the average time that a molecule stays in its excited state before returning to its ground state by photon emission. The fluorescence lifetime values of the AzaPc1/Pc2-Pc5 compounds were determined by using time correlated single photon counting (TCSPC). All time-resolved fluorescence studies were carried out for the exemplary compounds in solution in DMF, and the fluorescence decays of the macrocycles were concluded in mono exponential curves.

[5] = Ground state electronic absorption spectra (UV-Vis) in DMF; conditions: for log ε at λmax / λmax (Q band absorption): in DMF
Experimental: Electronic absorption, which is measured by UV-Vis spectroscopy, is one of the best spectroscopic techniques for determination of Pc formation and characterization of Pc compounds. Generally, two absorption bands are observed for Pc structures in their electronic absorption spectra. One band, known as Q, is observed at around 600-750 nm due to the π→π* transitions from the highest occupied molecular orbital (HOMO) to the lowest unoccupied molecular orbital (LUMO) of the Pc ring, while the other band, known as B, or the Soret band, is observed at around 300-450 nm due to transitions from deeper it levels to the LUMO. The ground state electronic absorption spectra of the studied novel Pcs were measured in DMF solution.
The ground state electronic absorption spectra show monomeric behavior evidenced by single (narrow) Q band absorptions, which is typical for metallated complexes. The Q bands appear around 680 nm for the symmetric Pc2 and both asymmetric Pc3 and Pc4 in DMF (Table 1). On the other hand, the non-peripheral Pc5 show approximately 20 nm red-shifted Q band absorption at 700 nm when compared to the peripheral counterparts in the solvent (Table 1). The observed red spectral shifts are typical for Pc molecules with substituents at the non-peripheral positions and are presumably due to linear combinations of the atomic orbitals (LCAO) coefficients at the non-peripheral positions of the HOMO being greater than those at the peripheral positions. As a result, the HOMO level is destabilized more at the non-peripheral site than it is at the peripheral one. Essentially, the energy gap (ΔE) between the HOMO and LUMO becomes smaller, resulting in a bathochromic shift. The 49 nm blue shift for AzaPc1 is caused by the additional nitrogen atoms instead of CH groups in the Pc macrocyclic system. The B-bands are broad due to the superimposition of the B1 and B2 bands in the 340 to 380 nm region.

[6] = Fluorescence quantum yield determination; conditions: DMF per text (Table 2 title prints DMSO)
Excerpt: Fluorescence emission occurs when an orbital electron of a photosensitizer relaxes from its singlet state to ground state upon emitting a photon of light. Fluorescence quantum yield (ΦF) indicates a measure of the efficiency of the fluorescence process and is defined as the ratio of the number of photons emitted to the number of photons absorbed. The fluorescence quantum yields (ΦF) may be determined using established methods described in existing literature. The ΦF values of the present AzaPc1/Pc2-Pc5 compounds are typical for those phthalocyanine compounds (Table 2). Particularly, ΦF values were measured to be 0.11 for AzaPc1, 0.16 for Pc2, 0.17 for Pc3, 0.14 for Pc4 and 0.11 for Pc5 in the exemplary DMF solvent system.

[7] = Aggregation studies (UV-Vis) in organic solvents and at different concentrations
Excerpt: Macrocycle Pcs generate high aggregation tendencies due to the intermolecular interactions that take place between their 18 π-electrons. Accordingly, this self-association process would minimize their solubility in most solvent systems and therefore affect their spectroscopic, photophysical, photochemical, and electrochemical properties. Generally, aggregation is highly dependent on the concentration, temperature, nature of the substituents and/or their position and orientation with respect to the Pc skeleton, nature of the solvent media, and the central metal ion in the Pc-cores.
Pc molecules can form two types of aggregates in dissolved systems—H-type and J-type-depending on the nature, position and/or orientation of the substituents. In general, Pcs form H-type aggregates in solution, whereas J-type aggregates occur rarely. The formation of J-type aggregates among Pc structures is significant, since J-type aggregation is photoactive, while H-type aggregation is not.
The aggregation properties for the AzaPc1/Pc2-Pc5 compounds were determined in different organic solvents, namely, DCM, chloroform, DMF, DMSO, ethanol, methanol, THF and toluene.
Aggregation behaviors for the AzaPc1/Pc2-Pc5 compounds were also investigated in DMF at different concentrations in order to establish a suitable concentration for further photophysical/photochemical studies.

C#CCOCc1cc(C)cc(COCC#C)c1Oc1nc2c(nc1Oc1c(COCC#C)cc(C)cc1COCC#C)C1=Nc3c4nc(Oc5c(COCC#C)cc(C)cc5COCC#C)c(Oc5c(COCC#C)cc(C)cc5COCC#C)nc4c4[n]3[Zn][n]3c(c5nc(Oc6c(COCC#C)cc(C)cc6COCC#C)c(Oc6c(COCC#C)cc(C)cc6COCC#C)nc5c3=NC3=NC(=N4)c4nc(Oc5c(COCC#C)cc(C)cc5COCC#C)c(Oc5c(COCC#C)cc(C)cc5COCC#C)nc43)=NC2=N1 [AzaPc1]
Singlet oxygen quantum yield ΦΔ [1]: 0.63 | Photodegradation quantum yield Φd (×10^−4) [2]: 4.30 ×10^−4 | λEm (emission maximum) [3]: 639 nm | λEx (excitation maximum) [3]: 629 nm | Stokes shift ΔStokes [3]: 10 nm | Fluorescence lifetime τF [4]: 2.46 ns | Blue shift of Q band absorption ([5]; DMF, aza analogue versus Pc macrocycle): 49 nm | log ε at λmax [5]: 5.07 | λmax (Q band absorption) [5]: 629 nm | Fluorescence quantum yield ΦF [6]: 0.14

C#CCOCc1cc(C)cc(COCC#C)c1Oc1cc2c(cc1Cl)C1=Nc3c4cc(Oc5c(COCC#C)cc(C)cc5COCC#C)c(Cl)cc4c4[n]3[Zn][n]3c(c5cc(Cl)c(Oc6c(COCC#C)cc(C)cc6COCC#C)cc5c3=NC3=NC(=N4)c4cc(Oc5c(COCC#C)cc(C)cc5COCC#C)c(Cl)cc43)=NC2=N1 [Pc3]
Singlet oxygen quantum yield ΦΔ [1]: 0.60 | Photodegradation quantum yield Φd (×10^−4) [2]: 1.40 ×10^−4 | λEm (emission maximum) [3]: 686 nm | λEx (excitation maximum) [3]: 678 nm | Stokes shift ΔStokes [3]: 8 nm | Fluorescence lifetime τF [4]: 2.84 ns | log ε at λmax [5]: 5.33 | Fluorescence quantum yield ΦF [6]: 0.17

[Zn+2].c1ccc2c(c1)-c1nc-2nc2[n-]c(nc3nc([n-]c4nc(n1)-c1ccccc1-4)-c1ccccc1-3)c1ccccc21 [Std-ZnPc, zinc(II) phthalocyanine, reference compound]
Singlet oxygen quantum yield ΦΔ [1]: 0.56 | Photodegradation quantum yield Φd (×10^−4) [2]: 0.23 ×10^−4 | λEm (emission maximum) [3]: 676 nm | λEx (excitation maximum) [3]: 670 nm | Stokes shift ΔStokes [3]: 6 nm | Fluorescence lifetime τF [4]: 1.03 ns | log ε at λmax [5]: 5.37 | λmax (Q band absorption) [5]: 670 nm | Fluorescence quantum yield ΦF [6]: 0.17

C#CCOCc1cc(C)cc(COCC#C)c1Oc1cc2c(cc1Oc1c(COCC#C)cc(C)cc1COCC#C)C1=Nc3c4cc(Oc5c(COCC#C)cc(C)cc5COCC#C)c(Oc5c(COCC#C)cc(C)cc5COCC#C)cc4c4[n]3[Zn][n]3c(c5cc(Oc6c(COCC#C)cc(C)cc6COCC#C)c(Oc6c(COCC#C)cc(C)cc6COCC#C)cc5c3=NC3=NC(=N4)c4cc(Oc5c(COCC#C)cc(C)cc5COCC#C)c(Oc5c(COCC#C)cc(C)cc5COCC#C)cc43)=NC2=N1 [Pc2]
Singlet oxygen quantum yield ΦΔ [1]: 0.60 | Photodegradation quantum yield Φd (×10^−4) [2]: 1.58 ×10^−4 | λEm (emission maximum) [3]: 683 nm | λEx (excitation maximum) [3]: 679 nm | Stokes shift ΔStokes [3]: 4 nm | Fluorescence lifetime τF [4]: 3.30 ns | log ε at λmax [5]: 5.33 | Fluorescence quantum yield ΦF [6]: 0.16

C#CCOCc1cc(C)cc(COCC#C)c1Oc1ccc2c(c1)C1=NC2=Nc2c3cc(Oc4c(COCC#C)cc(C)cc4COCC#C)ccc3c3[n]2[Zn][n]2c(c4ccc(Oc5c(COCC#C)cc(C)cc5COCC#C)cc4c2=NC2=NC(=N3)c3cc(Oc4c(COCC#C)cc(C)cc4COCC#C)ccc32)=N1 [Pc4]
Singlet oxygen quantum yield ΦΔ [1]: 0.57 | Aggregation in methanol [7]: small H-type aggregates were detected | Photodegradation quantum yield Φd (×10^−4) [2]: 1.12 ×10^−4 | λEm (emission maximum) [3]: 688 nm | λEx (excitation maximum) [3]: 682 nm | Stokes shift ΔStokes [3]: 6 nm | Fluorescence lifetime τF [4]: 3.37 ns | log ε at λmax [5]: 5.21 | Fluorescence quantum yield ΦF [6]: 0.14
